# Measurements taken from patent US12637468B2, “Substituted [1,2,4]triazolo[4,3-b]pyridazines as GABAA receptor modulators” (SHANGHAI SIMR BIOTECHNOLOGY CO., LTD., priority 2019, dated 2026).
# Assays:
# [1] = Rat liver microsome stability (RLM) experiment; assay type: in vitro ADME; details: rat liver microsomal stability, Table 5, compounds of the disclosure and comparative compounds
# Description: Effect embodiment 3 Rat liver microsome stability (RLM) experiment
# Rat liver microsomes (Xenotech, item No. R1000, lot No. 1310030), 100 mM potassium phosphate buffer solution (pH 7.4), 10 mM magnesium chloride.
# Compound preparation: 5 μL of compound DMSO mother liquor (10 mM) was added to 495 μL of methanol to obtain an intermediate solution with a compound concentration of 100 μM. Then 50 μL of the intermediate solution was taken and dissolved in 450 μL of potassium phosphate buffer solution to obtain a test solution with a final concentration of 10 μM.
# NADPH regeneration system (concentration of isocitrate dehydrogenase 1 unit/mL).
# Liver microsomes (final concentration 0.5 mg protein/mL).
# Reaction termination solution: cold acetonitrile containing 100 ng/mL Tolbutamide and 100 ng/mL Labetalol as an internal standard.
# • (1) Preparation of buffer solution: • Buffer solution A: 1.0 L of 0.1 M potassium phosphate buffer solution containing 1.0 mM EDTA • Buffer solution B: 1.0 L of 0.1 M dipotassium phosphate buffer solution containing 1.0 mM EDTA • Buffer solution C: 0.1 M potassium phosphate buffer, 1.0 mM EDTA, pH 7.4, titrated with 700 mL of buffer solution B and buffer solution A, monitored by pH meter. • (2) Preparation of reference substance (ketanserin) and concentration of administration solution of the test substance:
# […]: […] 10 mM DMSO reference substance stock solution and test substance stock solution were added to 190 μL of ACN, respectively. 1.5 μM administration solution (containing 0.75 mg/mL liver microsomes): […] administration solution and 18.75 μL of 20 mg/mL liver microsomes were added to 479.75 μL of buffer C on a wet ice. • (3) NADPH was added to buffer solution C to obtain a NADPH stock solution (6 mM). • (4) 30 μL of 1.5 μM administration solution (containing 0.75 mg/mL of liver microsomes) was taken on the wet ice and added to the wells of the test plate at different time points (0-, 5-, 15-, 30-, 45-min), respectively. • (5) Firstly, 135 μL of ACN containing IS was added to the wells of a 0 min test plate, and then 15 μL of the NADPH stock solution (6 mM) was added. • (6) The test plate at other time points and the NADPH stock solution were pre-heated in a 37° C. water bath for 5 minutes. • (7) 15 μL of the NADPH stock solution (6 mM) was taken and added to a pre-incubated test plate, and the reaction was started and timed. • (8) At 5 min, 15 min, 30 min and 45 min, 135 μL of CAN containing IS was added to the corresponding test plate respectively, and the test was completed. • (9) Test plates were shaken with a shaker (IKA, MTS 2/4) for 10 min (600 rpm/min) and then centrifuged for 15 min (Thermo Multifuge×3R, 5594 g). • (10) 50 μL of supernatant from each well was added to a 96-well sample plate containing 50 μL of ultrapure water (Millipore, ZMQS50F01), and the samples were analyzed by LC/MS.
# [2] = Thermodynamic solubility in simulated intestinal fluid (TS in FaSSIF); assay type: physicochemical; details: thermodynamic from solid, 37° C.
# Description: Simulated intestinal fluid FaSSIF: 54.76 mg of FaSSIF-V2 (Biorelevant, batch. V2FAS-0619-A, lot. V2FAS01) was weighed and added to 15 mL of a buffer solution. After dissolving, the solution was supplemented to 30 mL, and put at room temperature for 1 hour before use.
# Waters e2695 HPLC high performance liquid chromatography, Mettler XSE105 analytical balance.
# Firstly, a 10 mM stock solution was prepared with DMSO, and was diluted with a diluent (ACN: PB buffer 50:50) into 1 μM-200 μM as a standard solution.
# Thermodynamic solubility in intestinal fluid (TS in FaSSIF) was simulated. About 0.3 mg of each sample was weighed and added to 1.5 mL of FaSSIF solution, with two parts in parallel, shaken at 1000 rpm at 37° C. for 4 hours, filtered. 1 mL of an initial filtrate was discarded, and 400 μL of the subsequent filtrate was taken. The filtrate was detected by high performance liquid chromatograph (UV).
# [3] = biological target: T1, α5-GABAA receptor (Homo sapiens, UniProt P18507+P31644); assay: Cell-level screening: whole cell patch clamp, inverse agonist efficacy on α5-GABAA receptor expressed in HEK293; assay type: cell-based; details: drug 100 nM, GABA 0.05 μM, HEK293 expressing α5, β3 and γ2 subunits, clamped at −60 mV; read-out: Compound inverse agonist efficacy %
# T1 construct: expressed in transfected cells; host or cells: HEK293, monoclonal stably transfected line
# T1 sequence (P31644 32-462): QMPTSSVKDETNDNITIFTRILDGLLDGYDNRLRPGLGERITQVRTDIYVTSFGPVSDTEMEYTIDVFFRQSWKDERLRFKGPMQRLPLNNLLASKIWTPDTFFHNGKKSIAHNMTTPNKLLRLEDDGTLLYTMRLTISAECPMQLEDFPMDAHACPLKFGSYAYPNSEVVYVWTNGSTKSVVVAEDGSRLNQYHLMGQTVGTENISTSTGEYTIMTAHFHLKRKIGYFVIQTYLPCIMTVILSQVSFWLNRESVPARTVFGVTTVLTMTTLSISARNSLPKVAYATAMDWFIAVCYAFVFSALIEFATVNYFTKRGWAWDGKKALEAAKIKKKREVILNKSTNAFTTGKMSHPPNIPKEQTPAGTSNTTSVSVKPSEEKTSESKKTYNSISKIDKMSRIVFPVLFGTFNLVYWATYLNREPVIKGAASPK
# T1 sequence (P28472 26-473 partner): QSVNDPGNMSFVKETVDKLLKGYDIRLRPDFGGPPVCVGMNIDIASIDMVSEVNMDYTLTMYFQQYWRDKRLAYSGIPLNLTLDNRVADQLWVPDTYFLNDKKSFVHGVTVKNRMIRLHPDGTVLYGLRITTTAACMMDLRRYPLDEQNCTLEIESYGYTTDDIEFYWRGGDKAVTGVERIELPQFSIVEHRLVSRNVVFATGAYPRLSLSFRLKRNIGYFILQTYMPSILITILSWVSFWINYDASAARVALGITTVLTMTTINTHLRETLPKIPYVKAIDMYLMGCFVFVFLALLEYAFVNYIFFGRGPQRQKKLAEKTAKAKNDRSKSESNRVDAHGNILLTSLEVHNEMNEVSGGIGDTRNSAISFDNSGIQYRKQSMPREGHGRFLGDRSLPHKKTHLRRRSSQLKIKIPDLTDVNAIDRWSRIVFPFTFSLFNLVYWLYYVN
# T1 sequence (P18507 40-467 isoform P18507-1 limits assumed): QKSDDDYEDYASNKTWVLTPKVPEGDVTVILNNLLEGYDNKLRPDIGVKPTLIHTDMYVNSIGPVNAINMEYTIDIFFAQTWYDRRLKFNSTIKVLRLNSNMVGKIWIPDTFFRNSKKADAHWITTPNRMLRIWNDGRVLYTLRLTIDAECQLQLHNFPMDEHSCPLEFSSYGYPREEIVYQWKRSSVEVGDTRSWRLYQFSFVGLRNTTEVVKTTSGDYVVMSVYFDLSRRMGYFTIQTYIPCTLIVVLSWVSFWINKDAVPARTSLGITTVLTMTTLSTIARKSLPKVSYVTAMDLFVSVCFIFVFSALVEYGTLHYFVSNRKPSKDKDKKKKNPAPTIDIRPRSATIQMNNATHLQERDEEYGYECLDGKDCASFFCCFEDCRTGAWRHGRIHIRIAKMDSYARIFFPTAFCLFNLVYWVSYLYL
# Summary of the method: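 Whole-cell patch clamp at −60 mV on HEK293 stably expressing α5β3γ2, pH 7.4 extracellular/CsCl internal solutions. Current evoked by 0.05 μM GABA, then compound in GABA solution; screening at 100 nM, dose-response 0.3–300 nM. Inverse agonist efficacy as % change of GABA current.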
Compound,RLM [1] [µL/min/mg],solubility thermodynamic at 4 h [2] [µg/mL],inhibition at 0.1 µM [3] [%]
COc1cc2nnc(-c3cc(C)on3)n2nc1OCc1ccccn1 [drawing 922],0.3,–,–
"CCNC(=O)c1ccc(COc2nn3c(-c4cc(C)on4)nnc3cc2C(C)(C)C)nc1 [drawing 927, reference compound]",142.6,–,–
"Cc1cc(-c2nnc3cc(C(C)(C)C)c(OCc4ccccn4)nn23)no1 [drawing 924, reference compound]",33.6,–,–
"CCNC(=O)c1ccc(COc2nn3c(-c4cc(C)on4)nnc3c3ccccc23)nc1 [drawing 926, reference compound]",26,–,–
COc1cc2nnc(-c3cc(C)on3)n2nc1OCc1cnccn1 [Embodiment 19],–,49.2,35.4
COc1cc2nnc(-c3cc(C)on3)n2nc1OCc1ccc2nnc(C)n2n1 [Embodiment 216],–,167,52.1
CCNC(=O)c1ccc(COc2nn3c(-c4cc(C)on4)nnc3cc2OC)nc1 [drawing 925],11.4,–,–
COc1cc2nnc(-c3cc(C)on3)n2nc1OCc1ccc(OCC2CCOC2)cn1 (stereo not drawn) [Embodiment 173],–,32.8,58.8
COCCOc1cnc(COc2nn3c(-c4cc(C)on4)nnc3cc2OC)cn1 [Embodiment 85],–,53.9,57.3
COc1cc2nnc(-c3cc(C)on3)n2nc1OCc1cccnn1 [Embodiment 39],–,180,36.5
"COc1cc2nnc(-c3cc(C)on3)n2nc1OCc1ccc2c(n1)CCN(Cc1ncccn1)C2=O [Embodiment 88, 2-(((7-Methoxy-3-(5-methylisoxazol-3-yl)-[1,2,4]triazolo[4,3-b]pyridazin-6-yl)oxy)methyl)-6-(pyrimidin-2-ylmethyl)-7,8-dihydro-1,6-naphthyridin-5(6H)-one]",–,60.3,32.5
COc1cc2nnc(-c3cc(C)on3)n2nc1OCc1cccc(C2CCCNC2)n1 (stereo not drawn) [Embodiment 103],–,322,43.9
COCCCOc1ccnc(COc2nn3c(-c4cc(C)on4)nnc3cc2OC)c1 [Embodiment 55],–,38,25.1
COc1cc2nnc(-c3cc(C)on3)n2nc1OCc1ccn2c(C3CCOCC3)nnc2n1 [Embodiment 217],–,57.6,45.6
COc1cc2nnc(-c3cc(C)on3)n2nc1OCc1ccc(OCC2(C)COC2)nn1 [Embodiment 150],–,263,46.2
COc1cc2nnc(-c3cc(C)on3)n2nc1OCc1cccc(C2CCCN(C3COC3)C2)n1 (stereo not drawn) [Embodiment 122],–,48.4,31.9
COc1cc2nnc(-c3cc(C)on3)n2nc1OCc1ccc2c(cnn2C2CCOC2)n1 (stereo not drawn) [Embodiment 232],–,59,53.4
CCN1CCC(c2cccc(COc3nn4c(-c5cc(C)on5)nnc4cc3OC)n2)CC1 [Embodiment 167],–,408,42.5
COc1cc2nnc(-c3cc(C)on3)n2nc1OCc1ccc2nn(C3CCOC3)cc2n1 (stereo not drawn) [Embodiment 231],–,30.6,40.3
COc1cc2nnc(-c3cc(C)on3)n2nc1OCc1cc(OC2COC2)cnn1 [Embodiment 180],–,146,65.4
"COc1ccc(COc2nn3c(-c4cc(CO)on4)nnc3cc2OC)nc1 [Embodiment 47, (3-(7-Methoxy-6-((5-methoxypyridin-2-yl)methoxy)-[1,2,4]triazolo[4,3-b]pyridazine-3-yl)isoxazol-5-yl)methanol]",–,40.4,45.2
COc1cc2nnc(-c3cc(C)on3)n2nc1OCc1ccc2ncn(C3CCOCC3)c2n1 [Embodiment 247],–,32.7,60.4
"COc1cc2nnc(-c3cc(C)on3)n2nc1OCc1ncnn1C [Embodiment 1, 3-(7-Methoxy-6-((1-methyl-1H-1,2,4-triazol-5-yl)methoxy)-[1,2,4]triazolo[4,3-b]pyridazin-3-yl)-5-methylisoxazole]",–,146,41.9

# Further lines, results first:
RLM [1] [µL/min/mg],solubility thermodynamic at 4 h [2] [µg/mL],inhibition at 0.1 µM [3] [%],Compound
–,91.8,51.3,COCCn1ncc2nc(COc3nn4c(-c5cc(C)on5)nnc4cc3OC)ccc21 [Embodiment 241]
–,84.9,64.9,COc1cc2nnc(-c3cc(C)on3)n2nc1OCc1ccc2c(n1)CCN(CCC#N)C2 [Embodiment 90]
–,139,36,"COc1cc2nnc(-c3cc(C)on3)n2nc1OCc1ccc2c(n1)CCN(C1(CC#N)COC1)C2 [Embodiment 114, 2-(3-(2-(((7-Methoxy-3-(5-methylisoxazol-3-yl)-[1,2,4]triazolo[4,3-b]pyridazin-6-yl)oxy)methyl)-7,8-dihydro-1,6-naphthyridin-6(5H)-yl)oxetan-3-yl)acetonitrile]"
–,83,38.8,COCc1cccc(COc2nn3c(-c4cc(C)on4)nnc3cc2OC)n1 [Embodiment 50]
–,63.9,40.6,COc1cc2nnc(-c3cc(C)on3)n2nc1OCc1ccc2c(n1)CCN(C1COC1)C2=O [Embodiment 141]
–,60.3,40.6,COCCCOc1ccc(COc2nn3c(-c4cc(C)on4)nnc3cc2OC)nc1 [Embodiment 9]
–,179,45.2,COc1cc2nnc(-c3cc(C)on3)n2nc1OCc1ccc(OCCN2CCN(C)CC2)nn1 [Embodiment 163]
–,309,33.9,COc1cc2nnc(-c3cc(C)on3)n2nc1OCc1ccc(OCCN2CCOCC2)nn1 [Embodiment 164]
–,47,43.4,CCS(=O)(=O)N1CCc2nc(COc3nn4c(-c5cc(C)on5)nnc4cc3OC)ccc2C1 [Embodiment 210]
–,46.6,58.6,COCCN1CCc2nc(COc3nn4c(-c5cc(C)on5)nnc4cc3OC)ccc2C1=O [Embodiment 110]
–,318,52.4,COCCCC(=O)N1CCc2nc(COc3nn4c(-c5cc(C)on5)nnc4cc3OC)ccc2C1 [Embodiment 112]
–,146,62,COCCN1Cc2nc(COc3nn4c(-c5cc(C)on5)nnc4cc3OC)ccc2C1=O [Embodiment 66]
–,228,37.4,COc1cc2nnc(-c3cc(C)on3)n2nc1OCc1ccc2c(n1)CCN(CC1(C)COC1)C2 [Embodiment 200]
–,195,47.2,COCCN1CCc2nc(COc3nn4c(-c5cc(C)on5)nnc4cc3OC)ccc2C1 [Embodiment 80]
